The text below walks through data of ChEMBL document CHEMBL1138260, “The first biologically active synthetic analogues of FK228, the depsipeptide histone deacetylase inhibitor” (J Med Chem, 2007).

The target of one experiment is Histone deacetylase 1 (Homo sapiens, UniProt Q13547).
In another experiment the target is Histone deacetylase. Description: Inhibition of HDAC in HeLa nuclear extract in presence of DTT. Type of experiment: protein assay, Homo sapiens.
The target in experiment [1] is T1, Protein deacetylase HDAC6 (Homo sapiens, UniProt Q9UBN7).
T1 sequence (Q9UBN7 whole entry): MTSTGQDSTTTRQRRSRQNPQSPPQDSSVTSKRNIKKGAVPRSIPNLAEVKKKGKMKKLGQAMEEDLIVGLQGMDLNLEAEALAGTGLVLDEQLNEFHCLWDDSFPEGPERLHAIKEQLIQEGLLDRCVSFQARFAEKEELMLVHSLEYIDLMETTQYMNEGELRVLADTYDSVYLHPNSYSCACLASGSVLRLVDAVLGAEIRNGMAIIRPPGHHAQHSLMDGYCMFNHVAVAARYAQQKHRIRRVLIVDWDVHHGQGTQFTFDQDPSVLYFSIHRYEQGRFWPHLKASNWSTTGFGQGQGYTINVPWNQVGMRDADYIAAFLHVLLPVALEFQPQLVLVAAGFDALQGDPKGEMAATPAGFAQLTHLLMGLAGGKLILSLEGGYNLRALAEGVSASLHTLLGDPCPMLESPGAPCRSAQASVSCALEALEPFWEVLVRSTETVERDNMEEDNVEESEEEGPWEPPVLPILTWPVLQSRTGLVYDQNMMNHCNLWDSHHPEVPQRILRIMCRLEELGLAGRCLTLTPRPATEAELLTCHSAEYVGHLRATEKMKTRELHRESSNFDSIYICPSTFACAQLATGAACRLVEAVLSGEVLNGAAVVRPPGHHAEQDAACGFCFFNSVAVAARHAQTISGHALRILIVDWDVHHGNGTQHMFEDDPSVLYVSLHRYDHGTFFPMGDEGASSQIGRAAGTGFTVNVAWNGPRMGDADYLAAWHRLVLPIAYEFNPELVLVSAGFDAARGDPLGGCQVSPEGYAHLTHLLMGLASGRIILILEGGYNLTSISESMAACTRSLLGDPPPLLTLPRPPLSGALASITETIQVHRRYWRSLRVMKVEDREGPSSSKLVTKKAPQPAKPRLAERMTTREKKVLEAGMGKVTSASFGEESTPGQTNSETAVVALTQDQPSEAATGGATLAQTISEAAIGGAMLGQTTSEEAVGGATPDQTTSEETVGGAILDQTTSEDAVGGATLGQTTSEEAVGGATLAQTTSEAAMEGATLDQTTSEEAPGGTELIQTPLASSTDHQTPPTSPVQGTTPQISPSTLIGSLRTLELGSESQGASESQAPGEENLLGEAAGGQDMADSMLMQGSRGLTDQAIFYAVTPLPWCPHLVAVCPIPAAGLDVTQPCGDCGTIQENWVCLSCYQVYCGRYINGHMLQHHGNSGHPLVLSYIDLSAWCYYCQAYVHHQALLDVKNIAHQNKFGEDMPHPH
Description: Inhibition of HDAC6 in presence of DTT

In experiment [2] the test system is MCF7. Put plainly: Growth inhibition of MCF7 cells. Format: functional, cell-based. As to conditions: Homo sapiens.
For experiment [3], the system named is MCF7. Description: Induction of p21cip1/waf1 promoter activity in MCF7 cells after 24 hrs. Type of experiment: functional, cell-based. As to conditions: Homo sapiens.

The source made the active and inactive calls. The rule behind the calls is not given here.

As usually defined, the IC50 is the concentration that inhibits the measured activity by half.

Sequence of Histone deacetylase 1 (Q13547 whole entry): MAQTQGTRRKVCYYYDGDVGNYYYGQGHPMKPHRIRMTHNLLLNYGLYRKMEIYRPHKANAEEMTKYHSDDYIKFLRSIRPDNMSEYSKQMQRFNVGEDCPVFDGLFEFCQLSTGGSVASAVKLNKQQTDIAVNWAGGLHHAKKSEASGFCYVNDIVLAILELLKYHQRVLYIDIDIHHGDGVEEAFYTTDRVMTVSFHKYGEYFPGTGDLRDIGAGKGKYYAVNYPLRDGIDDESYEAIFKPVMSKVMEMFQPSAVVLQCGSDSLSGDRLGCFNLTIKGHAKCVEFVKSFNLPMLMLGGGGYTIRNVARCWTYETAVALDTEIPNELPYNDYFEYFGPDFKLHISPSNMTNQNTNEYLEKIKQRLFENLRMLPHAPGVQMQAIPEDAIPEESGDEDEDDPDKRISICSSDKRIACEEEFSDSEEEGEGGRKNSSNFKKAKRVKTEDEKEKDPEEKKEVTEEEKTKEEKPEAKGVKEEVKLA
Description for Histone deacetylase 1: Inhibition of HDAC1 in presence of DTT

As for `CC(C)[C@H]1NC(=O)[C@@H](C)NC(=O)[C@@H](C)NC(=O)C[C@@H](/C=C/CCS)OC(=O)CNC1=O`, the IC50 is 17.5 nM against Histone deacetylase 1, 7 nM on Histone deacetylase, 4920 nM in experiment [1] and more than 1000 nM in the experiment on MCF7 [2].
Consider `CC(C)[C@H]1NC(=O)C[C@H]2/C=C/CCSSC[C@@H](NC1=O)C(=O)N[C@H](C(C)C)C(=O)NCC(=O)O2`, for which the IC50 on Histone deacetylase 1 was 1.6 nM; at Histone deacetylase, 7.2 nM; in experiment [1] it was 897 nM; in the experiment on MCF7 [2], 5.1 nM.
For the compound `CC(C)[C@H]1NC(=O)[C@H]2CSSCC/C=C/[C@H](CC(=O)N[C@H](C)C(=O)N2)OC(=O)CNC1=O`, the half-maximal inhibitory concentration (IC50) against Histone deacetylase 1 is 1.6 nM; on Histone deacetylase, 15 nM; in experiment [1], 881 nM; in the experiment on MCF7 [2], 37 nM. The outcome in the experiment on MCF7 [3] was Active.
`CC(=O)SCC/C=C/[C@@H]1CC(=O)N[C@H](C)C(=O)N[C@H](C)C(=O)N[C@H](C(C)C)C(=O)NCC(=O)O1`: the IC50 at Histone deacetylase 1 is more than 100 nM; at Histone deacetylase, 242 nM; in experiment [1] it was more than 10000 nM; in the experiment with MCF7 [2], 55 nM.
Regarding `COC(=O)CNC(=O)[C@H](NC(=O)[C@H]1CSSCC/C=C/[C@@H](O)CC(=O)N[C@H](C)C(=O)N1)C(C)C`, the values for the IC50 at Histone deacetylase and with MCF7 [2] were more than 3200 nM and more than 1000 nM, respectively.
